Measurements from PMC8476055, “Synthesis and Biological Activity of Triterpene–Coumarin Conjugates” (Journal of Natural Products, 2021).
Several values for one entry are separate records, joined by “and”; a condition that tells them apart may be missing. Identical values can stand only once.

Tests used:
HT29 cells = assay: Annexin V-FITC/PI flow cytometry (apoptosis), HT29; assay type: cell-based, human; settings: HT29, 72 h at IC50 concentration, mean ± S.E.M.
Protocol: In consideration of the cytotoxic results of these triterpene conjugates with the three cell lines assayed, three MA–diamine–coumarin conjugates (1, 4, and 7) and the MA–coumarin conjugate 10 were selected for the following cytometry studies on the three cancer cell lines. Thus, the apoptotic determination assays were performed through double staining with Annexin V (An-V), conjugated fluorescein isothiocyanate (FITC), and propidium iodide (PI). […] The values of percentage of total apoptosis were expressed as means ± SEM of at least two duplicate experiments (Figure 1).
Apoptosis was assessed by flow cytometry using a FACScan (fluorescence-activated cell sorter) flow cytometer (Coulter Corporation, Hialeah, FL, USA). For these assays, 5 × 10^4 B16–F10, 6 × 10^4 HT29 cells, and 15 × 10^4 Hep G2 cells were placed in 24-well plates with 1.5 mL of medium and incubated for 24 h. Subsequently, the cells were treated with the selected compounds in triplicate for 72 h at their corresponding IC50 concentrations. The cells were collected and resuspended in a binding buffer (10 mM HEPES/NaOH, pH 7.4, 140 mM NaCl, 2.5 mM CaCl2). Annexin V-FITC conjugate (1 mg/mL) was then added and incubated for 15 min at room temperature in darkness. Just before the analysis by flow cytometry, cells were stained with 20 μL of 1 mg/mL PI solution. In each experiment, approximately 10 × 10^3 cells were analyzed, and the experiment was duplicated twice.

[1] = MTT assay, nontumor HPF cells; assay type: cell-based, human; settings: human, HPF normal lung fibroblast cells; at the compound's IC50 concentration for B16–F10 cancer cells; read-out: percent viability (% viability) of HPF cells
Text: (§1) Only MA conjugates 7 and 10 were selected to compare the growth inhibitory effects in the three nontumor cell lines (HPF, IEC-18, and WRL68) versus the three cancer cell lines (B16–F10, HT29, and Hep G2). Therefore, the cytotoxic effects on B16–F10 murine melanoma cells were compared with those of HPF normal human epithelial lung fibroblasts, with similar tissue. Similarly, the cytotoxic effects of these conjugates on HT29 colon cancer cells and Hep G2 hepatoma cells were compared with those of nontumor cells of the same tissue, such as IEC-18 normal rat ileum cells and WRL68 normal human embryo liver cells, respectively.
(§2) […] ATTC HTB-38), Hep G2 human hepatocyte carcinoma cells (ECACC 85011430), nontumor human epithelial lung fibroblast cells HPF (ScienCell catalog (cat.) no. 3300), nontumor rat ileum cells IEC-18 (ECACC no. 88011801), and nontumor human embryo liver cells (ECACC 89121403) were cultured in DMEM medium supplemented with 2 mM glutamine, 10% heat-inactivated fetal bovine serum (FCS), 10.000 units/mL penicillin, and […]. These cells were incubated at 37 °C in an atmosphere of 5% CO2 and 95% humidity. The culture media were changed every 48 h, and the confluent cultures were separated with a trypsin solution (0.25% EDTA). Subconfluent monolayer cells were used in all experiments. All cell lines used were provided by the cell bank of the University of Granada (Spain).
(§3) The effect of the synthesized compounds on the viability of tumor cells was assessed using an MTT assay, based on the ability of living cells to cleave the tetrazolium ring, thus producing formazan, which absorbs at 570 nm. The MA conjugates (1–12) were assayed against the selected cancer cell lines. For an evaluation of the cytotoxic effects of these compounds, the cells were seeded in 96-well plates at an initial density of 5 × 10^3 B16–F10 cells, 6 × 10^3 HT29 cells, 15 × 10^3 Hep G2 cells, 8 × 10^3 HPF cells, 15 × 10^3 IEC-18 cells, and 11 × 10^3 WRL68 cells, per well. After incubation for 24 h, the cells were treated with the synthesized compounds in triplicate, at different concentrations (0–200 μg/mL), and incubated for 72 h. Thereafter, 100 μL of MTT solution (0.5 mg/mL) were added to each well. After 2 h of incubation, the cells were washed twice with phosphate buffered saline (PBS), and the formazan was resuspended in 100 μL of DMSO. Relative cell viability, with respect to untreated control cells, was measured by absorbance at 550 nm on an ELISA plate reader (Tecan Sunrise MR20-301, TECAN, Austria). […] These experiments were measured and compared to the control after 72 h of treatment.

[2] = test system: HPF normal human epithelial lung fibroblasts; assay: MTT assay, nontumor HPF cells; assay type: cell-based; settings: Homo sapiens, Fibroblast; MTT, untreated control = 100% viability; read-out: IC50, growth inhibition of HPF non-tumor cells
Text: as §1, §2, §3

[3] = test system: IEC-18 normal rat ileum cells; assay: MTT assay, nontumor IEC-18 cells; assay type: cell-based; settings: Rattus norvegicus, IEC-18; MTT, untreated control = 100% viability; read-out: IC50, growth inhibition of IEC-18 non-tumor cells
Text: as §1, §2, §3

[4] = MTT assay, nontumor IEC-18 cells; assay type: cell-based, rat; settings: rat, IEC-18 normal ileum cells; at the compound's IC50 concentration for HT29 cancer cells
Text: as §1, §2, §3

[5] = test system: WRL68 normal human embryo liver cells; assay: MTT assay, nontumor WRL68 cells; assay type: cell-based; settings: Homo sapiens, WRL68; MTT, untreated control = 100% viability; read-out: IC50, growth inhibition of WRL68 non-tumor cells
Text: as §1, §2, §3

[6] = MTT assay, nontumor WRL68 cells; assay type: cell-based, human; settings: human, WRL68 normal embryo liver cells; at the compound's IC50 concentration for Hep G2 cancer cells
Text: as §1, §2, §3

[7] = MTT assay, statements over the three nontumor cell lines; assay type: cell-based; settings: human, rat, at the IC50 concentration of the respective cancer cell line; over HPF, IEC-18, WRL68; read-out: cell viability percentage of nontumor cells
Text: as §1
The effect of the synthesized compounds on the viability of tumor cells was assessed using an MTT assay, based on the ability of living cells to cleave the tetrazolium ring, thus producing formazan, which absorbs at 570 nm. The MA conjugates (1–12) were assayed against the selected cancer cell lines. […] Relative cell viability, with respect to untreated control cells, was measured by absorbance at 550 nm on an ELISA plate reader (Tecan Sunrise MR20-301, TECAN, Austria). […] These experiments were measured and compared to the control after 72 h of treatment.

Structure (SMILES)	Early Apoptosis (HT29 cells) [%]	Late Apoptosis (HT29 cells) [%]	Necrosis (HT29 cells) [%]	Total Apoptosis (HT29 cells)	Viable Cells (HT29 cells) [%]	viability at 72 h [1] [%]	IC50 [2] [µM]	IC50 [3] [µM]	viability at 72 h [4] [%]	IC50 [5] [µM]	viability at 72 h [6] [%]	viability at 72 h [7] [%]
CC1(C)CC[C@]2(C(=O)NCCCNC(=O)c3cc4ccccc4oc3=O)CC[C@]3(C)C(=CC[C@@H]4[C@@]5(C)C[C@@H](O)[C@H](O)C(C)(C)[C@@H]5CC[C@]43C)[C@@H]2C1 [Compound 1, 2α,3β-Dihydroxy-N-(3′-(2″-oxo-2″H-chromene-3″-carboxamido)propyl)olean-12-en-28-amide]	10.8 ± 0.6	29.2 ± 0.5	3.7 ± 0.9	40.0 ± 0.5%	56.3 ± 1.3	–	–	–	–	–	–	–
CC1(C)CC[C@]2(C(=O)NCCCNC(=O)Cc3cc(=O)oc4cc(O)ccc34)CC[C@]3(C)C(=CC[C@@H]4[C@@]5(C)C[C@@H](O)[C@H](O)C(C)(C)[C@@H]5CC[C@]43C)[C@@H]2C1 [Compound 4, 2α,3β-Dihydroxy-N-(3′-(2″-(7‴-hydroxy-2‴-oxo-2‴H-chromen-4‴-yl)acetamido)propyl)olean-12-en-28-amide]	32.0 ± 2.3	20.5 ± 3.0	6.2 ± 0.9	52.4 ± 3.0%	41.4 ± 3.8	–	–	–	–	–	–	–
CC1(C)CC[C@]2(C(=O)NCCCNC(=O)/C=C/c3ccc(O)cc3)CC[C@]3(C)C(=CC[C@@H]4[C@@]5(C)C[C@@H](O)[C@H](O)C(C)(C)[C@@H]5CC[C@]43C)[C@@H]2C1 [Compound 7, 2α,3β-Dihydroxy-N-(3′-((E)-3″-(4‴-hydroxyphenyl)acrylamido)propyl)olean-12-en-28-amide]	16.2 ± 3.6	29.4 ± 1.6	1.5 ± 0.4	45.6 ± 2.0%	52.9 ± 2.0	76.9 ± 2.9	38.8 ± 1.3	19.6 ± 0.3	88 ± 0.6	16.3 ± 0.9	61.4 ± 1.3	61 to 88
CC1(C)CC[C@]2(C(=O)O)CC[C@]3(C)C(=CC[C@@H]4[C@@]5(C)C[C@@H](OC(=O)c6cc7ccccc7oc6=O)[C@H](OC(=O)c6cc7ccccc7oc6=O)C(C)(C)[C@@H]5CC[C@]43C)[C@@H]2C1 [Compound 10]	23.8 ± 4.2	34.1 ± 4.9	6.5 ± 0.0	57.9 ± 1.6% and 58%	35.7 ± 2.3	92.9 ± 2.9	24.5 ± 1.9	7.4 ± 0.7	89.3 ± 2.2	6.2	87.4 ± 1.7	90
